Patent publication US5130302A, “Boronated nucleoside, nucleotide and oligonucleotide compounds, compositions and methods for using same” (Boron Bilogicals, Inc., priority 1989, dated 1992)
In brackets after ≈: the same amount, converted by molar mass. Like-named read-outs stand apart in the source and are kept apart here.

Key:
[1] = system: L1210 lymphoid leukemia cells; experiment: Cytotoxicity, L1210 lymphoid leukemia cells; format: cell-based; details: Mus musculus, read-out: ED50 (cytotoxicity), L1210
Experimental: (§1) More specifically, the cytotoxic activity of the boron adducts of the present invention was tested on the following neoplastic cell lines:
1. L1210 lymphoid leukemia cells, R. Geran et al., Cancer Chemotherapy Reports 3, 7 (1972).(grown in RPMI+15% FBS+antibiotics).
(§2) The cytotoxic screens were conducted according to NIH protocols, see E. Huang et al., J. Pharm. Sci. 61, 108 (1972), with 10^4 cells, growth medium, antibiotics and drugs from 0.5 to 100 μg/ml final concentration. For the L1210, Hela-S, amd Tmolt, (i.e. the suspended cells), the incubations were conducted in sterile test tubes in a final volume of 1 ml for 72 hr at 37° C. in a CO2 incubator. The cells on the third day were still in log growth phase. The number of cells/ml are determined using trypan blue exclusion and a hemocytometer. See, e.g., R. Geran, supra. For solid tumors there is plated out in wells 1×10^4 cells with 1 ml of medium+antibiotics and the other components of growth. When the controls have converged (≈95%) then the density of the cells is estimated and the ED50 values calculated.

[2] = system: P388; experiment: Cytotoxicity, P388; format: cell-based; details: Mus musculus, P388; read-out: ED50 (cytotoxicity), P388
Experimental: as §2

[3] = system: Tmolt acute lymphoblastic T cell leukemia; experiment: Cytotoxicity, Tmolt acute lymphoblastic T cell leukemia; format: cell-based; details: for IC50: T-cell, read-out: ED50 (cytotoxicity), Tmolt; for activity in T molt-3 screen: in words
Experimental: as §1
2. Tmolt^S acute lymphoblastic T cell leukemia, S. Schreiber and N. Ikemoto, Tett. Lett 29, 3211 (1988) (grown in RPMI - 1640+10% FBS).
as §2

[4] = system: SW480 human colorectal carcinoma; experiment: Cytotoxicity, colon adenocarcinoma SW480 human colorectal carcinoma; format: cell-based
Experimental: as §1
3. Colon adenocarcinoma SW480 human colorectal carcinoma. A. Leibovitz et al., Cancer Res. 36, 4562 (1976) (grown in L15+10% FBS).
as §2

[5] = system: KB epidermoid oral nesopharnyx; experiment: Cytotoxicity, KB epidermoid oral nasopharynx; format: cell-based; details: Homo sapiens, read-out: ED50 (cytotoxicity), KB
Experimental: 6. KB epidermoid oral nesopharnyx. R. Geran, supra: H. Eagle, Proc. Soc. Expt.
Biol. 89, 362 (1955)(grown in EMEM +5% calf serum).
as §2

[6] = system: Lung bronchogenic MB-9812; experiment: Cytotoxicity, lung bronchogenic MB-9812; format: cell-based; details: read-out: ED50 (cytotoxicity), Lung Bronchogenic
Experimental: 4. Lung bronchogenic MB-9812, S. Aronson et al., Expt. Cell Res. 61, 1 (1970) (grown in EMEM+10% FBS+NEAA).
as §2

[7] = system: Hela-S; experiment: Cytotoxicity, Hela-S cervical carcinoma suspended; format: cell-based; details: Homo sapiens, read-out: ED50 (cytotoxicity), Hela-S
Experimental: 7. Hela-S, ATCC-CCL 2.2, cervical carcinoma suspended, S. Schreiber and N. Ikemoto, supra; T. Puck et al., J. Exp. Med. 103. 273 (1956) (grown in Joklik+5% FBS, Ham's F12 +5% FBS).
as §2

[8] = system: Human Osteosarcoma TE418; experiment: Cytotoxicity, human osteosarcoma TE418; format: cell-based
Experimental: 5. Human Osteosarcoma TE418. H. Smith et al., Int. J. Cancer 17, 219 (1976) (grown in DMEM+10% FBS).
as §2

[9] = system: Human glioma cell EH 118 MG; experiment: Cytotoxicity, human glioma cell EH 118 MG; format: cell-based; details: read-out: ED50 (cytotoxicity), Glioma
Experimental: 9. Human glioma cell EH 118 MG transformed stain of Rous sarcoma virus, J. Lutton et al., J. Biol. Chem. 254, 11181 (1979) (grown in DMEM-H+10% FCS).
as §2

[10] = system: inflammatory response; experiment: Anti-inflammatory activity, carrageenan-injected hind foot; format: in vivo, CF1 male mice; details: mice; for Antiinflammatory Activity, % inhibition: 8 mg/kg/day, intraperitoneal, 3 hours and 30 minutes prior to carrageenan
Experimental: CF1 male mice (~25 g) were administered test drugs at 5-40 mg/kg in 0.05% Tween 80--H2 O intraperitoneally 3 hours prior to and 30 minutes prior to the injection of 0.2 ml of 1% carrageenan in 0.9% saline into the plantar surface of the right hind foot. Saline was injected into the left hind foot, which serves as a base line. After 3 hours, both feet were excised at the tibiotarsal (ankle) joint according to standard procedures. See C. Winter et al., Proc. Soc. Expt. Biol Med. 544, 111 (1962); A. Roszkawski et al., J. Pharm. Exp. Ther. 179, 114 (1971). Control mice afforded a 78±3 mg increase in paw weight.

[11] = system: serum cholesterol levels; experiment: Antihyperlipidemic activity, serum cholesterol; format: in vivo, male CF1 mice; details: mice; for Hypolipidemic: Cholesterol Inhibition, % inhibition: 8 mg/kg/day, intraperitoneal for 16d
Experimental: (§3) Compounds to be tested were suspended in 1% aqueous carboxymethylcellulose,homogenized and administered to male CF1 mice (25 g) intraperitoneally for 16d. On days 9 and 16, blood was obtained by tail vein bleeding, and the serum was separated by centrifugation for three minutes. The serum cholesterol levels were determined by a modification of the Liebermann--Burchard reaction in accordance with known techniques. See A. Ness, et al., Clin. Chim. Acta 10, 229 (1964). Serum triglyceride levels were determined with a commercial kit, the Fisher Hycel Triglyceride Test Kit, for a different group of animals bled on day 16.

[12] = system: Serum triglyceride levels; experiment: Antihyperlipidemic activity, serum triglyceride; format: in vivo, male CF1 mice; details: mice; for Hypolipidemic: Triglyceride Inhibition, % inhibition: 8 mg/kg/day, intraperitoneal, bled on day 16
Experimental: as §3

[13] = Stability in aqueous medium by HPLC; format: physicochemical; details: for remaining at 168 h: period of 168 h, read-out: stable in aqueous medium; for stability in aqueous medium: in words
Experimental: By HPLC, compounds 3a, 3b, and 3d in aqueous medium (0.01 M TEAAc) are >94% stable over a period of 168 h. […], however, is >50% decomposed during this period.

[14] = Homo sapiens, SW480; read-out: ED50 (cytotoxicity), Adeno Carcinoma SW480
[15] = Osteosarcoma TE418, read-out: ED50 (cytotoxicity), Osteo sarcoma

| remaining at 168 h ([13]; 0.01 M TEAAc, HPLC) | stability in aqueous medium [13] | SMILES | IC50 ([1]; L1210, 72 hr at 37° C.) | IC50 [2] | IC50 ([3]; Tmolt, 72 hr at 37° C.) | IC50 [4, 14] | IC50 [5] | IC50 ([6]; Lung bronchogenic MB-9812) | IC50 ([7]; Hela-S, 72 hr at 37° C.) | IC50 [8, 15] | IC50 ([9]; Glioma EH 118 MG) | Antiinflammatory Activity, % inhibition [10] | Hypolipidemic: Cholesterol Inhibition, % inhibition [11] | Hypolipidemic: Triglyceride Inhibition, % inhibition [12] | activity in T molt-3 screen [3] | activity in human colorectal adenocarcinoma screen ([4]; in words) | also measured |
| --- | --- | --- | --- | --- | --- | --- | --- | --- | --- | --- | --- | --- | --- | --- | --- | --- | --- |
| > 94% | – | N#C[BH2-][n+]1cn([C@H]2C[C@H](O)[C@@H](CO)O2)c2nc[nH]c(=O)c21 [Compound 3b, 2'-Deoxyinosine-N^7-cyanoborane] | 4 µg/mL (≈ 13.7 µM) | 7.21 µg/mL (≈ 24.8 µM) | 1.73 µg/mL (≈ 5.94 µM) | 3.86 µg/mL (≈ 13.3 µM) | 3.45 µg/mL (≈ 11.9 µM) | 4.93 µg/mL (≈ 16.9 µM) | 2.41 µg/mL (≈ 8.28 µM) | 7.28 µg/mL (≈ 25 µM) | 8.49 µg/mL (≈ 29.2 µM) | 25% | 19% | 30% | – | – | degraded at 168 h ([13]; 0.01 M TEAAc, 168 h, HPLC, read-out: decomposed in aqueous medium): > 50% |
| – | good stability | N#C[BH2-][n+]1cnc2c(ncn2[C@H]2C[C@H](O)[C@@H](CO)O2)c1N [Compound 3c, 2'-Deoxyadenosine-N1-cyanoborane] | 3.68 µg/mL (≈ 12.7 µM) | 5.96 µg/mL (≈ 20.5 µM) | 1.36 µg/mL (≈ 4.69 µM) | 2.82 µg/mL (≈ 9.72 µM) | 3.12 µg/mL (≈ 10.8 µM) | 5.26 µg/mL (≈ 18.1 µM) | 2.35 µg/mL (≈ 8.1 µM) | 7.39 µg/mL (≈ 25.5 µM) | 6.88 µg/mL (≈ 23.7 µM) | 22% | 44% | 37% | potent activity | potent activity | – |
| > 94% | good stability | N#C[BH2-][n+]1c(N)ccn([C@H]2C[C@H](O)[C@@H](CO)O2)c1=O [Compound 3d, 2' Deoxycytidine-N3-cyanoborane] | 2.61 µg/mL (≈ 9.81 µM) | 3.17 µg/mL (≈ 11.9 µM) | 1.13 µg/mL (≈ 4.25 µM) | 2.96 µg/mL (≈ 11.1 µM) | 5.46 µg/mL (≈ 20.5 µM) | 3.73 µg/mL (≈ 14 µM) | 3.37 µg/mL (≈ 12.7 µM) | 4.63 µg/mL (≈ 17.4 µM) | 4.39 µg/mL (≈ 16.5 µM) | 52% | 38% | 23% | potent activity | potent activity | – |
| – | – | CC(C)[Si](OC[C@H]1O[C@@H](n2ccc(N)[n+]([BH2-]C#N)c2=O)C[C@@H]1O)(C(C)C)C(C)C [Compound 4] | – | – | – | – | 4.07 µg/mL (≈ 9.64 µM) | – | – | – | – | – | – | – | – | – | IC50 ([1]; L1210, 72 h): 2.92 µg/mL (≈ 6.91 µM); IC50 ([3]; 72 h): 2.34 µg/mL (≈ 5.54 µM); IC50 ([4]; Homo sapiens, SW480, read-out: ED50 (cytotoxicity), Adeno Carcinoma SW480): 2.71 µg/mL (≈ 6.42 µM); IC50 [6]: 5.58 µg/mL (≈ 13.2 µM); IC50 ([7]; HeLa, 72 h): 3.63 µg/mL (≈ 8.59 µM); IC50 ([8]; read-out: ED50 (cytotoxicity), Osteo sarcoma): 6.62 µg/mL (≈ 15.7 µM); IC50 [9]: 3.43 µg/mL (≈ 8.12 µM) |
| – | – | CCOC(=O)C(C)(C)Oc1ccc(Cl)cc1 [clofibrate, reference compound] | – | – | – | – | – | – | – | – | – | – | – | – | – | – | Hypolipidemic: Cholesterol Inhibition, % inhibition (Standard) ([11]; 130 mg/kg/day): 13%; Hypolipidemic: Triglyceride Inhibition, % inhibition (Standard) ([12]; standard (clofibrate at 130 mg/kg/day)): 25% |
| – | – | CCCCC1C(=O)N(c2ccccc2)N(c2ccccc2)C1=O [phenylbutazone, reference compound] | – | – | – | – | – | – | – | – | – | – | – | – | – | – | Antiinflammatory Activity, % inhibition (Standard) ([10]; standard, column head 8 mg/kg/day): 47% |
